From patent USRE47493E1, “Substituted bicyclic dihydropyrimidinones and their use as inhibitors of neutrophil elastase activity” (Boehringer Ingelheim International GmbH, priority 2014, dated 2019)
Values after ≈ are worked out from the molar mass of the structure shown. Like-named read-outs stand apart in the source and are kept apart here.

What was measured:
[1] = target: Human neutrophil elastase (Homo sapiens (Human), UniProt P08246); assay: Human Neutrophil Elastase Assay; type: biochemical
Method: Human Neutrophil Elastase Assay
Materials: Human neutrophil elastase was purchased from Calbiochem (Cat.No.: 324681) and the elastase substrate MeOSuc-Ala-Ala-Pro-Val-AMC from Bachem (Cat.No.: I-1270). All other materials were of the highest grade commercially available.
The following buffers were used: Compound buffer: 100 mM Tris, 500 mM NaCl, adjusted to pH 7.5; Assay buffer: 100 mM Tris, 500 mM NaCl, adjusted to pH 7.5, containing 0.01% BSA.
Assay conditions: Test compounds were prediluted in DMSO and subsequently in compound buffer (5% DMSO final). 5 μL of these compound dilutions were mixed with 10 μl Neutrophil elastase (9 ng/ml in assay buffer) in a black 384 well OptiPlate (Perkin Elmer, Cat No.: 6007270) and incubated for 15 min at room temperature. Subsequently 10 μL substrate solution in assay buffer were added (250 nM final concentration) and the plates were incubated for 60 min at room temperature. After inactivation of the enzyme, fluorescence intensities were measured at 380 nm excitation and 460 nm emission wavelengths.
Each plate contains wells with a high value control (DMSO+enzyme+substrate) and wells with a low value control (DMSO+inactivated enzyme+substrate). IC50 values were estimated using a sigmoidal concentration response curve with variable slope. Means of low values were taken as 0%, means of high values as 100%.

[2] = Assay for the Determination of Metabolic Stability with Human Liver Microsomes; type: in vitro ADME; details: pH 7.6; pooled human liver microsomes, 37° C., NADPH; read-out: t1/2 INVITRO
Method: Assay for the Determination of Metabolic Stability with Human Liver Microsomes
The metabolic degradation of the test compound is assayed at 37° C. with pooled human liver microsomes. The final incubation volume of […] per time point contains TRIS buffer pH 7.6 (0.1 M), magnesium chloride (5 mM), microsomal protein (1 mg/ml) and the test compound at a final concentration of […]. Following a short preincubation period at 37° C., the reactions are initiated by addition of beta-nicotinamide adenine dinucleotide phosphate, reduced form (NADPH, 1 mM) and terminated by transfering an aliquot into acetonitrile after different time points. Additionally, the NADPH-independent degradation is monitored in incubations without NADPH, terminated at the last time point. The rol remaining test compound after NADPH independent incubation is reflected by the parameter c(control) (metabolic stability). The quenched incubations are pelleted by centrifugation (10′000 g, 5 min) An aliquot of the supernatant is assayed by LC-MS/MS for the amount of parent compound.
The half-life (t1/2 INVITRO) is determined by the slope of the semilogarithmic plot of the concentration-time profile. The intrinsic clearance (CL_[…]) is calculated by considering the amount of protein in the incubation: CL_[…][μl/min/mg protein]=(ln 2/(half-life [min]*protein content [mg/ml]))*1′000.
The half-life (t1/2 INVITRO) values of selected compounds in the metabolic stability assay described above are listed in Table 15.

[3] = Assay for Determination of Drug Transport Across Human CACO-2 Cells; type: in vitro ADME; details: human; for efflux ratio at 2 h, 10 nM: pH 7.2, Caco-2, PEBA/PEAB; for Papp A→B at 10 nM: Caco-2, apical-to-basal, read-out: PEAB; for Papp A→B at 10 nM / Papp B→A at 10 nM: pH 7.2, 37° C.; for Papp B→A at 10 nM: Caco-2, basal-to-apical, read-out: PEBA
Text: Assay for Determination of Drug Transport Across Human CACO-2 Cells
The assay provides information on the potential of a compound to pass the cell membrane, on the extent of oral absorption as well as on whether the compound is actively transported by uptake and/or efflux transporters. For the measurement of permeability across polarized, confluent human cancer colon carcinoma cells 2 (Caco-2) cell monolayers grown on permeable filter supports are used as the in vitro absorption model. Apparent permeability coefficients (PE) of the compounds across the Caco-2 monolayers are measured (pH 7.2, 37° C.) in apical-to-basal (AB) (absorptive) and basal-to-apical (BA) (secretory) transport direction. AB permeability (PEAB) represents drug absorption from the intestine into the blood and BA permeability (PEBA) drug secretion from the blood back into the intestine via both passive permeability as well as active transport mechanisms mediated by efflux and uptake transporters that are expressed on the Caco-2 cells. The compounds are assigned to permeability/absorption classes by comparison of the AB permeabilities with the AB permeabilities of reference compounds with known in vitro permeability and oral absorption in the human. Identical or similar permeabilities in both transport directions indicate passive permeation, vectorial permeability points to additional active transport mechanisms. […] Active transport is concentration-dependently saturable.
Caco-2 cells (1−2*10^5 cells/cm^2 area) are seeded on filter inserts (Costar transwell polycarbonate or PET filters, […] pore size) and cultured (DMEM) for 10 to 25 days. Compounds are dissolved in appropriate solvent (like DMSO, 1-20 mM stock solutions). Stock solutions are diluted with HTP-4 buffer (128.13 mM NaCl, 5.36 mM KCl, 1 mM MgSO4, 1.8 mM CaCl2, 4.17 mM NaHCO3, 1.19 mM Na2HPO4×7H2O, 0.41 mM NaH2PO4×H2O, 15 mM HEPES, 20 mM glucose, pH 7.2) to prepare the transport solutions (typically […] compound, final DMSO <=0.5%). The transport solution (TL) is applied to the apical or basolateral donor side for measuring A-B or B-A permeability (3 filter replicates), respectively. The receiver side contains HTP-4 buffer supplemented with 2% BSA. Samples are collected at the start and end of experiment from the donor and at various time intervals for up to 2 hours also from the receiver side for concentration measurement by LC-MS/MS or scintillation counting. Sampled receiver volumes are is replaced with fresh receiver solution.
The apparent permeability coefficients (PEAB and PEBA) and efflux ratios (PEBA/PEAB) of selected compounds in the Caco-2 drug transport assay described above are listed in Table 17.

[4] = Assay for Determination of Aqueous Solubility; type: physicochemical; details: McIlvaine buffer pH 6.8, 2.5% DMSO; for Aqueous solubility: 24 h
Method: Assay for Determination of Aqueous Solubility
The aqueous solubility of a compound is determined by comparing the amount dissolved in aqueous buffer (containing 2.5% DMSO) to the amount dissolved in an acetonitrile/water (1/1) solution. Starting from a 10 mM DMSO stock solution, aliquots are diluted with acetonitrile/water (1/1) and Mcllvaine buffer pH 6.8, respectively. After 24 h of shaking, the solutions or suspensions are filtered and analyzed by LC-UV. The amount dissolved in buffer is compared to the amount dissolved in the acetonitrile/water (1/1) solution. Solubility is measured from 0.001 to 0.125 mg/ml at a DMSO concentration of 2.5%. If more than 90% of the compound is dissolved in buffer, the value is marked with “>”.

[5] = human neutrophil elastase, substrate MeOSuc-Ala-Ala-Pro-Val-AMC, pH 7.5, read-out: IC50

Sequence of Human neutrophil elastase (P08246 30-267): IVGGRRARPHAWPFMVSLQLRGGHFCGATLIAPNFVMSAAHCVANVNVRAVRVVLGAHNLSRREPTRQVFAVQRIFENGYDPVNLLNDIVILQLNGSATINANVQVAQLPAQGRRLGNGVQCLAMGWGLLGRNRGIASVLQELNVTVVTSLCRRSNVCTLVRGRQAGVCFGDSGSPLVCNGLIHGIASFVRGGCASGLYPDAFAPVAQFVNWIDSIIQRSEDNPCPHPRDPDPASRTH

IC50 [1, 5] [nM] | half-life at 1 nM [2] [h] | efflux ratio at 2 h, 10 nM [3] | Papp A→B at 10 nM [3] [×10⁻⁶ cm/s] | Papp B→A at 10 nM [3] [×10⁻⁶ cm/s] | Aqueous solubility [4] [µg/mL] | solubility at 24 h ([4]; McIlvaine buffer pH 6.8 with 2.5% DMSO, aqueous buffer, kinetic from dmso stock) [µg/mL] | IC50 ([1]; read-out: IC50, inhibition of neutrophil elastase) [nM] | SMILES
< 1 | > 2.17 | 5.4 | 9.86 | 53.5 | 86 |  |  | CNC(=O)N1C(=O)N(c2cccc(C(F)(F)F)c2)C2=C(C(=O)CCC2)[C@H]1c1ccc(C#N)cc1S(C)(=O)=O (single isomer, unassigned) [Example 47A]
7.3 | > 2.17 | 6.7 | 11.4 | 76.7 | 92 |  |  | CS(=O)(=O)c1cc(C#N)ccc1[C@H]1NC(=O)N(c2cccc(C(F)F)c2)C2=C1C(=O)CCC2 (single isomer, unassigned) [Example 19A]
1.7 | > 2.17 | 3.2 | 30.3 | 96.1 |  | 12 (≈ 22.8 µM) |  | CC(C)(O)CNC(=O)N1C(=O)N(c2cccc(C(F)(F)F)c2)C2=C(C(=O)CCC2)C1c1ccc(C#N)cc1 (stereo not shown) [Example 70.9]
4.8 | > 2.17 | 4.2 | 20.9 | 88.2 | 78 |  | 4.8 | CS(=O)(=O)c1cc(C#N)ccc1[C@H]1NC(=O)N(c2cccc(C(F)(F)F)c2)C2=C1C(=O)CCC2 (single isomer, unassigned) [Example 18A]
3.2 | > 2.17 | 2.4 | 26 | 61.7 | 59 |  |  | CCS(=O)(=O)c1cc(C#N)ccc1[C@H]1NC(=O)N(c2cccc(C(F)(F)F)c2)C2=C1C(=O)CCC2 (single isomer, unassigned) [Example 54A]
